Values quoted from earlier work in patent US9089636B2, “Methods and devices for delivering GLP-1 and uses thereof” (VALERITAS, INC., priority 2004, dated 2015).
Like-named read-outs stand apart in the source and are kept apart here. No end group written: not given here.

Experiments:
[1] = tested on: rat PC12 pheochromocytoma cell line
[2] = tested on: Multiple islet cell lines
human islets = settings: 5 days
Zucker diabetic rats = settings: 2 day infusion
[3] = tested on: BHK fibroblasts expressing a transfected GLP-1 receptor
[4] = tested on: cultured fetal rat hippocampal neurons; settings: for extent of glutamate-induced cell death: short term cultures
fetal pig islet clusters = settings: 75-90 day gestational age
lean mice = settings: subcutaneous, 2 days
young and old rats = settings: infusion for 5 days
neonatal GK rat = settings: 5 days
rats [5] = settings: ICV
rats [6] = settings: for blood pressure and heart rate: centrally and peripherally administered
rats [7] = settings: for effect on GLP-1-induced fecal output: rat, in vivo
human subjects [8] = settings: physiologically relevant concentrations
[9] = tested on: subjects with type 2 diabetes; settings: following a liquid test meal
[10] = tested on: human subjects with LV dysfunction and acute MI
salt-sensitive rats = settings: 14 day treatment, high salt diet
human volunteers = settings: 60 minute infusion, 30 pmol/kg/h
cultured myotubes = settings: 0.1-1 pM
[11] = target: dipeptidylaminopeptidase IV (DPP-IV) (Homo sapiens, UniProt P27487)
Chain of dipeptidylaminopeptidase IV (DPP-IV) (P27487 whole entry, species assumed): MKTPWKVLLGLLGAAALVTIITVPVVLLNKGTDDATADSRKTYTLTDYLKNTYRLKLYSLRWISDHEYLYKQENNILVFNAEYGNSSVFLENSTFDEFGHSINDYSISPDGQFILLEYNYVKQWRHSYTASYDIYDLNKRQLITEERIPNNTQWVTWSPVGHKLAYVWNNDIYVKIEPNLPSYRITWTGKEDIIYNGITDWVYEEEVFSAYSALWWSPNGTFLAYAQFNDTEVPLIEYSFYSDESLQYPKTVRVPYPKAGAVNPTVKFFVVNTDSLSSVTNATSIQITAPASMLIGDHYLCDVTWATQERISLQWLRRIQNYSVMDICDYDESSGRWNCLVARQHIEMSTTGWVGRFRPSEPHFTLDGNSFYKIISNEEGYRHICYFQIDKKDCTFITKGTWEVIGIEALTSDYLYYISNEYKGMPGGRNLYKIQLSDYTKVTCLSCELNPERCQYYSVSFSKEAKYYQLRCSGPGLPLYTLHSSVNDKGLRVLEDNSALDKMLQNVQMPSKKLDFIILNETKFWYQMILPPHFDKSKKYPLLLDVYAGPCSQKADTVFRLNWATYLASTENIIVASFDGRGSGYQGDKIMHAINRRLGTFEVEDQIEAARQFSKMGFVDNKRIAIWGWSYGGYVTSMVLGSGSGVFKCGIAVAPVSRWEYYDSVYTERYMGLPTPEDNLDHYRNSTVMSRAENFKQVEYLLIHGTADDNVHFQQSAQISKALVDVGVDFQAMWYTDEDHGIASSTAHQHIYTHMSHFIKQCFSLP

[12] = in vivo
human subjects [13] = settings: infusion
CNS = settings: in vivo
hippocampal neurons = settings: systemic administration
cloned GLP-1 receptor = cloned GLP-1 receptor (Homo sapiens, UniProt P43220)
Chain of cloned GLP-1 receptor (P43220 24-463): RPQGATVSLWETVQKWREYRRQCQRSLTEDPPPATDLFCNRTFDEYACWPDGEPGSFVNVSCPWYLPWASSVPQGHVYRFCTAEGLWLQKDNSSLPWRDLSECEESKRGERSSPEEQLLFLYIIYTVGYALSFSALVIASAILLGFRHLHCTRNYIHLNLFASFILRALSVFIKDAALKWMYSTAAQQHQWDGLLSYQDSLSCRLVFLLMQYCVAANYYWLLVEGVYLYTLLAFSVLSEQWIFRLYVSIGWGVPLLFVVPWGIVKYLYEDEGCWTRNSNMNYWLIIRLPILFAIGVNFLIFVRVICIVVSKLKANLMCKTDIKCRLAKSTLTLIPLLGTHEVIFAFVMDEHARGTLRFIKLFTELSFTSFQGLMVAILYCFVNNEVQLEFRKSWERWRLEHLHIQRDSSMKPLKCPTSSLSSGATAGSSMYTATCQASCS

db/db mice [14] = settings: daily for 14 days
purified rat b cells = settings: combination of cytotoxic cytokines
[15] = tested on: human islet-like cell clusters; settings: 4 days in vitro
rat pancreatectomy model = settings: in vivo
db/db mice [16] = tested on: db/db mice
blood brain barrier = settings: CD1 mice
[17] = after 72-hour infusion at 1.5 pmol/kg per minute
[18] = after reperfusion, before GLP-1 infusion

Molecule: COc1cccc(-c2cc(=O)c3ccccc3o2)c1N [PD98059]
- effect on the differentiation actions of GLP-1 [1]: abrogated

Molecule: Glucagon-like peptide-1 [GLP-1]
- cephalic-induced antral motility (pigs): strongly inhibited
- Gene or Protein activated by GLP-1 (INS-1 cells; Akt and IRS proteins): Akt and IRS proteins
- Gene or Protein activated by GLP-1 (INS-1 cells; Calcineurin and NFAT): Calcineurin and NFAT
- Gene or Protein activated by GLP-1 (INS-1 cells; Glucokinase): Glucokinase
- Gene or Protein activated by GLP-1 (INS-1 cells; Immediate early genes): Immediate early genes
- Gene or Protein activated by GLP-1 (INS-1 cells; Kir 6.2 RNA): Kir 6.2 RNA
- Gene or Protein activated by GLP-1 (RIN1046-38 cells; GLUT-1 RNA): GLUT-1 RNA
- Gene or Protein activated by GLP-1 (RIN1046-38 cells; Hexokinase I RNA): Hexokinase I RNA
- Gene or Protein activated by GLP-1 (RIN1046-38 cells; SNAP-25 phosphorylation): SNAP-25 phosphorylation
- Gene or Protein activated by GLP-1 (Multiple cell models): Insulin RNA
- Gene or Protein activated by GLP-1 [2]: Pdx-1 RNA and protein
- cell death (human islets): decreased
- glucose-stimulated insulin secretion (human islets): improved
- islet size and β cell mass (Zucker diabetic rats): increased
- percentage of apoptotic β cells (Zucker diabetic rats): significantly reduced
- cell survival [3]: increased
- extent of hydrogen peroxide-induced apoptosis (Min6 mouse islet cells; in vitro): reduced
- protection against glutamate-induced apoptosis [4]: completely protect
- extent of glutamate-induced cell death [4]: significantly reduced
- calpain activity (calpain): decreased
- differentiation to an endocrine phenotype (AR42J cell line): promotes
- glucose-dependent insulin secretion (fetal pig islet clusters): promoted
- insulin expression in subsets of cells (human NIP cells): induced
- islet labeling index (lean mice): increased
- β cell mass (young and old rats): increased
- pancreatic insulin content and total beta-cell mass (neonatal GK rat): enhanced
- food intake (rats [5]): dose-dependently inhibits
- blood pressure and heart rate (rats [6]): dose-dependently increased
- fecal output (rats [7]; ICV): increase
- peak plasma level of GLP-1 (continuous 5 day subcutaneous infusion): 88.7 pM
- peak plasma level of GLP-1 (subcutaneous injection 30 minutes before meals): 269.4 pM
- pentagastrin-stimulated gastric acid secretion (human subjects [8]): inhibited
- gastric emptying [9]: inhibits
- LVEF [10, 17]: 39+2%
- global wall motion score indexes [10, 17]: 1.63 ± 0.09
- regional wall motion score indexes [10, 17]: 2.02 ± 0.11
- LVEF [10, 18]: 29+2%
- global wall motion score indexes [10, 18]: 1.94 ± 0.11
- regional wall motion score indexes [10, 18]: 2.53 ± 0.08
- plasma glucose and free fatty acids ([10]; human, in vivo): significant decrease
- contraction amplitude (rat cardiac myocytes): decrease
- intracellular cAMP (rat cardiac myocytes): increased
- development of hypertension (salt-sensitive rats): reduced
- Rd (glucose disposal) (human volunteers): no significant change
- decrease in Ra (endogenous glucose production) (human volunteers): 17%
- plasma glucose (human volunteers): decreased
- glycogen synthesis (muscle strips): stimulated
- glucose incorporation into glycogen (cultured myotubes): stimulated

Molecule: Val8-GLP-1(7-37)OH
- DPP-IV degradation [11]: resistant
- optimum plasma levels [12]: 30-200 picomoles/liter

Molecule: Nc1ncnc2c1ncn2[C@@H]1O[C@@H]2COP(O)(=S)O[C@H]2[C@H]1O (some centres unmarked) [Rp-cAMP, reference compound]
- effect on the anti-apoptotic effects of GLP-1 (Min6 mouse islet cells): partially blocked

Molecule: O=S(=O)(NCCNC/C=C/c1ccc(Br)cc1)c1cccc2cnccc12 [H-89]
- effect on the differentiation actions of GLP-1 [1]: only modest effects

Molecule: astressin
- effect on GLP-1-induced fecal output (rats [7]): blocked

Molecule: exendin (9-39)
- food intake (rats [5]): increased
- effect on GLP-1-induced fecal output (rats [7]): blocked
- effect on the insulinotropic and glucagonostatic effects of exogenous GLP-1 (human subjects [13]): blocked

Molecule: CNC1(C)C2CCC(C2)C1(C)C (centres unmarked) [mecamylamine]
- effect on the GLP-1-dependent increase in heart rate (rats [6]; normal rats): blocked
- effect on the stimulatory effect of GLP-1 on blood pressure (rats [6]; normal rats): prevented

Molecule: CN1[C@@H]2CC[C@H]1C[C@@H](OC(=O)C(CO)c1ccccc1)C2 (some centres unmarked) [atropine]
- effect on the stimulatory effect of GLP-1 on blood pressure (rats [6]; normal rats): prevented

Molecule: [Ser8]GLP-1 (HSEGTFTSDVSSYLEGQAAKEFIAWLVKGRG; also: radiolabel, position not given here; UniProt P01275 98-128, looked up, variant A8S)
- uptake into the CNS (CNS): not saturable

Molecule: [Ser(2)]exendin(1-9)
- kainate-induced apoptosis of hippocampal neurons (hippocampal neurons): prevents

Molecule: GLP-1 (9-36)amide (EGTFTSDVSSYLEGQAAKEFIAWLVKGR-NH2; UniProt P01275 100-127, looked up, fragment) [GLP-1 (9-36) amide, truncated fragment, primary metabolite of GLP-1 produced by DPP-IV]
- effect on the action of GLP-1 7-36 amide (cloned GLP-1 receptor): antagonized

Molecule: exendin-4
- numbers of Tunel+ apoptotic β cells (db/db mice [14]): reduced
- progression to more frank diabetes (db/db mice [14]): prevented
- β cell mass (db/db mice [14]): increased
- β cell apoptosis induced by streptozotocin (STZ) (mice): reduced
- extent of apoptotic cell death (purified rat b cells): directly reduced
- cell survival [3]: increased
- protection against glutamate-induced apoptosis [4]: completely protect
- extent of glutamate-induced cell death [4]: significantly reduced
- differentiation to an endocrine phenotype (AR42J cell line): promotes
- number of cells exhibiting immunopositivity for insulin or glucagon (Capan-1): significant increase
- insulin expression in subsets of cells (human NIP cells): induced
- Pdx-1 expression [15]: enhance
- insulin expression [15]: not
- glucose intolerance following partial pancreatectomy (rat pancreatectomy model): attenuates
- islet neogenesis and β cell proliferation (rat pancreatectomy model): increases
- β cell proliferation (db/db mice [16]): increased
- β cell proliferation (ob/ob mice): not
- pancreatic insulin content and total beta-cell mass (neonatal GK rat): enhanced
- crossing of the blood brain barrier (blood brain barrier): readily crosses
- blood pressure and heart rate (rats [6]): dose-dependently increased
